Experimental data taken from publication PMC11148772, “Inhibition of protein translational machinery in triple-negative breast cancer as a promising therapeutic strategy” (Cell Reports Medicine, 2024).
Entries after “also recorded” stand apart in the source; their conditions may differ.

Tests used:
[1] = Maximum tolerated dose / acute oral toxicity; assay type: in vivo; parameters: key to Behavioral, Neurologic and Autonomic signs, Response, all listed signs: 0; no adverse effect; ±1 mild adverse effect; ±2, moderate adverse effect; ±3 severe adverse effect; details: for Body Weight, Mean / Toxicity (death/test) / Behavioral, Neurologic and Autonomic signs, Response, all listed signs: Female SD rats; for Behavioral, Neurologic and Autonomic signs, Response, all listed signs: observation time 1 hr, 3 animals
Method: Female Sprague-Dawley rats (Charles river laboratories, strain code: Crl:CD(SD) 001, 8–10 weeks old) were used by the eurofins lab services (Eurofins Discovery) to test the toxicity of SU056.
The acute oral toxicity of SU056 was evaluated by Eurofins lab services (Eurofins discovery). The oral toxicity study was performed in female rats and mice for multiple escalating doses (100 mg/kg, 200 mg/kg, 400 mg/kg). Rats and mice were monitored for their behavioral, neurological and autonomic signs after administration of SU056. The response was recorded as 0; no adverse effect, ±1 mild adverse effect, ±2, moderate adverse effect and ±3 severe adverse effect.

[2] = biological target: YB-1 (Homo sapiens, UniProt P67809); test: Cellular thermal shift assay (CETSA); assay type: binding; parameters: endogenous in cells; host or cells: MDA-MB-231; details: MDA-MB-231 cells, 1.5 h
Method: MDA-MB-231 cells treated with vehicle control (DMSO) or SU056 were analyzed by CETSA.[53] Cells were grown to 70–80% confluency and then treated with either DMSO (vehicle control) or SU056 (1 μM) for 1.5 h. Cells were then washed twice with PBS and divided into 10 PCR tubes (1 x 10^6 cells/tube in 100 μL PBS). The tubes incubated at different temperatures (37, 41, 44, 47, 50, 53, 56, 59, 63, 67°C) for 3 min in a thermal cycler, followed by 2 min at room temperature. The tubes were snap-frozen in liquid nitrogen, the cells were lysed using a freeze/thaw cycle, and the soluble and insoluble fractions were separated by centrifugation at 14,000 RPM for 30 min at 4°C. […] All samples were analyzed by LC-MS/MS in triplicate.
A Dionex Ultimate Rapid Separation Liquid Chromatography system (Thermo Fisher Scientific) was used to load 3 μL of the combined TMT-labeled peptides onto a PepMap C18 trap column (Thermo Fisher Scientific) with a flow rate set at 5 μL/min for 10 min. […] The flow rate throughout the gradient was set to 0.3 μL/min and each sample was analyzed in triplicates. Eluted peptides were analyzed using an Orbitrap Eclipse Tribrid mass spectrometer (Thermo Fisher Scientific). […] The most abundant precursor ions were subject to collision induced dissociation (CID) with a collisional energy set to […] and detected in the ion trap using Turbo scan rate. […]

[3] = tested on: MDA-MB-468 cells; test: Cell cycle analysis (PI, flow cytometry); assay type: cell-based, human
Method: (§1) TNBC cells (MDA-MB-231, MDA-MB-468, and SUM159) were seeded (40,000 cells per well) in 12 well plates and grown in regular conditions. The next day, cells were treated with DMSO (control) and indicated SU056 concentrations. At the end of each time point, cells were processed for PI staining as described earlier.[49] Synchronization of cells in G2/M phase was done using nocodazole (200 nM for 16 h) followed by SU056 treatment for 24 h. Cell cycle distribution was then analyzed by flow cytometry using a BD FACS Calibur (BD, USA).

[4] = tested on: MDA-MB-231 cells; test: Cell cycle analysis (PI, flow cytometry); assay type: cell-based, human
Method: as §1

[5] = nocodazole 200 nM 16 h, then SU056 24 h

Question: Which “Body Weight, Mean” value ([1]; 100 mg/kg, 0 hr) does the source give for O=C1OCC2=C1C(c1cccc(F)c1)c1cc3c(cc1N2CCO)OCO3 (stereo not shown) [SU056, 9-(3-fluorophenyl)-5-(2-hydroxyethyl)-6,9-dihydro-[1,3]dioxolo[4,5-g]furo[3,4-b]quinolin-8(5H)-one] here?
Answer: 212.7 gm

Question: What about the “Toxicity (death/test)” value ([1]; 100 mg/kg, 15 min) of the same compound?
Answer: 0/3

Question: What about the “Toxicity (death/test)” value ([1]; 100 mg/kg, 1 hr) of the same compound?
Answer: 0/3

Question: What about the “Body Weight, Mean” value ([1]; 100 mg/kg, 24 hr) of the same compound?
Answer: 216.7 gm

Question: And the “Toxicity (death/test)” value ([1]; 100 mg/kg, 24 hrs)?
Answer: 0/3

Question: What about the “Body Weight, Mean” value ([1]; 100 mg/kg, 48 hr) of the same compound?
Answer: 219.0 gm

Question: What about the “Toxicity (death/test)” value ([1]; 100 mg/kg, 48 hrs) of the same compound?
Answer: 0/3

Question: And the “Body Weight, Mean” value ([1]; 100 mg/kg, 72 hr)?
Answer: 229.7 gm

Question: And the “Toxicity (death/test)” value ([1]; 100 mg/kg, 72 hrs)?
Answer: 0/3

Question: And the “Behavioral, Neurologic and Autonomic signs, Response, all listed signs” value ([1]; 100 mg/kg)?
Answer: 0

Question: What about the “Body Weight, Mean” value ([1]; 200 mg/kg, 0 hr) of the same compound?
Answer: 204.3 gm

Question: And the “Toxicity (death/test)” value ([1]; 200 mg/kg, 15 min)?
Answer: 0/3

Question: And the “Toxicity (death/test)” value ([1]; 200 mg/kg, 1 hr)?
Answer: 0/3

Question: What about the “Body Weight, Mean” value ([1]; 200 mg/kg, 24 hr) of the same compound?
Answer: 208.0 gm

Question: And the “Toxicity (death/test)” value ([1]; 200 mg/kg, 24 hrs)?
Answer: 0/3

Question: What about the “Body Weight, Mean” value ([1]; 200 mg/kg, 48 hr) of the same compound?
Answer: 211.0 gm

Question: What about the “Toxicity (death/test)” value ([1]; 200 mg/kg, 48 hrs) of the same compound?
Answer: 0/3

Question: What about the “Body Weight, Mean” value ([1]; 200 mg/kg, 72 hr) of the same compound?
Answer: 215.0 gm

Question: What about the “Toxicity (death/test)” value ([1]; 200 mg/kg, 72 hrs) of the same compound?
Answer: 0/3

Question: And the “Behavioral, Neurologic and Autonomic signs, Response, all listed signs” value ([1]; 200 mg/kg)?
Answer: 0

Question: And the “Body Weight, Mean” value ([1]; 400 mg/kg, 0 hr)?
Answer: 204.0 gm

Question: What about the “Toxicity (death/test)” value ([1]; 400 mg/kg, 15 min) of the same compound?
Answer: 0/3

Question: What about the “Toxicity (death/test)” value ([1]; 400 mg/kg, 1 hr) of the same compound?
Answer: 0/3

Question: What about the “Body Weight, Mean” value ([1]; 400 mg/kg, 24 hr) of the same compound?
Answer: 200.0 gm

Question: And the “Toxicity (death/test)” value ([1]; 400 mg/kg, 24 hrs)?
Answer: 0/3

Question: What about the “Body Weight, Mean” value ([1]; 400 mg/kg, 48 hr) of the same compound?
Answer: 209.7 gm

Question: What about the “Toxicity (death/test)” value ([1]; 400 mg/kg, 48 hrs) of the same compound?
Answer: 0/3

Question: What about the “Body Weight, Mean” value ([1]; 400 mg/kg, 72 hr) of the same compound?
Answer: 216.7 gm

Question: And the “Toxicity (death/test)” value ([1]; 400 mg/kg, 72 hrs)?
Answer: 0/3

Question: What about the “Behavioral, Neurologic and Autonomic signs, Response, all listed signs” value ([1]; 400 mg/kg) of the same compound?
Answer: 0

Question: What about the “behavioral, neurological, and anatomical signs of toxicity and morbidity” value ([1]; rats, 100, 200, and 400 mg/kg oral gavage, 72 h) of the same compound?
Answer: not affected; also recorded: no observable changes

Question: What about the “stability of translation-associated proteins (eIFs, RPL, RPS)” value ([2]; 1 μM) of the same compound?
Answer: increased the overall stability

Question: And the ΔTm at 1 µM [2]?
Answer: 13.8 °C

Question: What about the cell cycle effect ([3]; 0.5, 1.0, and 2.0 μM, 12 and 24 h) of the same compound?
Answer: G2/M phase arrest

Question: And the “cell death in nocodazole-synchronized cells” value [3, 5]?
Answer: increased cell death

Question: What about the “cells in G2/M phase” value ([4]; 24 h, control 12%) of the same compound?
Answer: 34%

Question: And the “cell death in nocodazole-synchronized cells” value [4, 5]?
Answer: increased cell death
